Holding throughout (experiment): NCI anticancer screen, dose series, 48 h
The subject of assay [1] is HT29 colon.
Assay [2] deals with SN12C renal.
Assay [3] concerns NCI-H226 lung.
The subject of assay [4] is IGROV1 ovarian.
For assay [5], the system named is HCT-116 colon.
In assay [6] the test system is CCRF-CEM leukemia.
Assay [7] relates to SR leukemia.
Assay [8] relates to HCC-2998 colon.
Assay [9] deals with HOP-92 NSCLC.
In assay [10] the test system is SK-MEL-28 melanoma.

Several values for one entry are separate records, joined by “and”; a condition that tells them apart may be missing. Equal entries are not always repeated.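 Method: 48-hour compound exposure of cells in 96-well plates, five concentrations, linear interpolation of endpoints. GI50: concentration for 50% inhibition of growth. TGI: concentration producing complete growth inhibition.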

Consider `CCOc1ccc2nc(-c3ccc(O)cc3)sc2c1`, for which the TGI in assay [1], in assay [2], in assay [3], in [4] and in assay [5] was above 100 µM in each case.

On to `O=C1OC(c2ccccc2)=N/C1=C\c1cccnc1`, for which the TGI in assay [6], in [1], in assay [7], in assay [8], in assay [3] and in assay [9] was above 100 µM throughout. The TGI in [4] and in assay [10] was above 100 µM each time.

As to `C/C(CC/C(C)=N/O)=N\O`, the TGI in [1], in assay [2], in assay [8], in assay [3], in assay [4] and in assay [10] was above 100 µM in each case. Moreover, the TGI in [5] is above 100 µM.

In the case of `CS(=O)(=O)c1ccc(/C=N/NC(N)=S)cc1`, the TGI in assay [1], in [2], in assay [8], in assay [3], in assay [9] and in assay [4] was above 100 µM in each case. For the same compound, the TGI in assay [10] and in [5] was above 100 µM throughout.

As to `O=C1OC[C@@H]2[C@@H](O)CCCCCN12`, the TGI in assay [6], in assay [1], in assay [2], in assay [7], in [8] and in assay [3] was above 100 µM each time. The TGI in [9], in assay [4], in assay [10] and in assay [5] was above 100 µM each time.

As to `COc1cc2c(cc1OC)-c1cc3ccccc3c[n+]1CC2`, the TGI in assay [6], in [1], in [2], in assay [7], in assay [8] and in [3] was above 100 µM in each case. Further, the TGI in assay [9], in [4], in [10] and in [5] was above 100 µM in each case.

As to `CCS(=O)(=O)N1CCC(C(C)n2c(C)c(C(=O)NCc3c(OC)cc(C)[nH]c3=O)c3ccccc32)CC1` (centres undefined), the GI50 was above 100 µM in assay [1]; above 100 µM in [8]; above 100 µM in assay [3]; 57.6 µM in [4]; above 100 µM in assay [10]. The TGI in assay [1], in [8], in assay [3], in [4] and in assay [10] was above 100 µM in each case.

In the case of `COC1=C2CC(C)CC(OC)C(O)C(C)/C=C(\C)C(OC(N)=O)C(OC)/C=C\C=C(/C)C(=O)NC(=C(C=NC(C)(C)C)C1=O)C2=O` (centres undefined), the TGI worked out at 22.2 µM in [6]; 21 µM in assay [1]; 21 µM in assay [2]; 16.6 µM in assay [8]; 13.8 µM in assay [3]; 1.35 µM in assay [9]. The TGI was found to be 53.2 µM in assay [4], 11.7 µM in assay [10] and 16.2 µM in assay [5].

As for `CC[C@]1(O)C[C@H]2CN(CCc3c([nH]c4ccccc34)[C@@](C(=O)OC)(c3cc4c(cc3OC)N(C=O)[C@H]3[C@@](O)(C(=O)OC)[C@H](OC(C)=O)[C@]5(CC)C=CCN6CC[C@]43[C@@H]65)C2)C1`, the TGI in [1] was 27.2 µM; in assay [9], 1.19 µM and 3.07 µM and 6.57 µM; in [10] it was 113 µM. The GI50 in assay [7] was 0.00657 µM; in [10] it was 0.00464 µM; in [5], 0.0011 µM.

Turning to `Cc1ccccc1C(=O)c1c(O)c2c(c(O)c1Br)CCCC2`, the TGI stood at 66.6 µM in assay [1]; 33.3 µM in assay [2]; 44.5 µM in assay [7]; 34 µM in assay [8]; 58.4 µM in [3]; 40 µM in assay [9]. Further, the results for the TGI in assay [4] and in [5] were 42.6 µM and 30.2 µM, respectively.

As for `O=[N+]([O-])c1nc(-c2ccccn2)[nH]c1[N+](=O)[O-]`, the TGI in assay [6], in assay [1], in assay [2], in assay [7], in assay [8] and in [3] was above 100 µM each time. Also, the TGI is above 100 µM in [9], above 100 µM in [4], above 100 µM in [10] and 49 µM in assay [5].

As for `CCOC(=O)NC(Nc1ncccn1)(C(F)(F)F)C(F)(F)F`, the TGI in [6], in [1], in assay [2], in [7], in assay [8] and in assay [3] was above 100 µM in each case. The TGI in [10] and in [5] was above 100 µM throughout.

Take `NC(=O)c1nnc2ccc(F)cc2c1N`: the TGI in [6] was above 100 µM; in assay [1], above 100 µM; in assay [2], above 100 µM; in assay [7], above 100 µM; in [8] it was above 100 µM; in [3] it was 73.5 µM. Besides, the TGI in assay [4] and in assay [5] was above 100 µM each time.

For `Nc1ncnc2c1ncn2C1OC(COP(=O)(O)O)C(O)C1O` (centres undefined), the TGI was above 50 µM in [6]; above 50 µM in assay [1]; above 50 µM in [2]; above 50 µM in assay [8]; above 50 µM in assay [3]; above 46.6 µM in [9]. Further, the TGI in assay [4], in [10] and in assay [5] was above 50 µM throughout.

In the case of `CC1(C)CCC[C@@]2(C)C1CCC1(C)C(CCc3ccoc3)/C(=C/OS(=O)(=O)O)CCC12` (some centres undefined) (tested in a mixture with another compound), the TGI in assay [6], in assay [1], in assay [2], in assay [7], in assay [8] and in assay [3] was above 100 µM each time. For the same compound, the TGI was 63.2 µM in [9], above 100 µM in assay [4], above 100 µM in assay [10] and 38.9 µM in assay [5].

Turning to `C/C=C/[C@H]1O[C@@](O)([C@@H](C)[C@H](O)[C@H](C)[C@H]2OC(=O)/C(OC)=C/C(C)=C/[C@@H](C)[C@@H](O)[C@@H](CC)[C@@H](O)[C@H](C)C/C(C)=C/C=C/[C@@H]2OC)C[C@H](OC2CC(O)C(O)C(C)O2)[C@@H]1C` (some centres undefined), the TGI in [6] is below 0.0075 µM; in [1], 8.03 µM; in [2], 18.1 µM; in assay [7] it was 0.75 µM; in [8], 11.8 µM; in assay [3], 11.7 µM. Besides, the TGI in assay [9] was 3.69 µM; in [4], 17 µM; in assay [10] it was 14.7 µM; in assay [5], 4.15 µM.

For the compound `C=C(CN(C)C)C(=O)c1ccccc1C`, the TGI in assay [6] was 34.2 µM; in assay [1], above 100 µM; in assay [2], above 78.1 µM; in assay [7], 47.2 µM; in assay [8] it was above 100 µM; in [3] it was above 100 µM. Also, the TGI in assay [9] was 33.3 µM; in assay [4] it was above 100 µM; in [10], 62.4 µM; in assay [5] it was above 57.1 µM.

Take `O=C(Nc1cccc(-n2ccc3c(NC(=O)c4ccccc4)nccc32)c1)c1ccc(N2CCOCC2)c(C(F)(F)F)c1`: the GI50 is 0.0618 µM in assay [6]; 0.038 µM in assay [1]; 0.134 µM in assay [2]; 0.045 µM in assay [7]; 0.0614 µM in [8]; 0.0827 µM in assay [3]. Further, the GI50 in [9] was 0.179 µM; in [4], 0.057 µM; in assay [10] it was 0.0436 µM; in assay [5] it was 0.0371 µM. Also, the TGI in assay [6] was above 100 µM; in assay [2], above 100 µM; in assay [7], above 100 µM; in [3] it was above 92.9 µM; in assay [9], 6.87 µM; in assay [4] it was above 75.4 µM. Moreover, the TGI in [10] and in [5] was above 100 µM in each case.

As for `O=C(O)c1cc2ccccc2c(N=Nc2ccccc2)c1O`, the TGI was above 100 µM in [6]; 54.8 µM in assay [1]; 74.1 µM in assay [2]; above 100 µM in assay [9]; above 100 µM in assay [4]; above 100 µM in assay [10]. The TGI in [5] was above 100 µM.

Consider `O=C(O)c1ccccc1NC(c1ccccc1)c1ccc2cccnc2c1O` (centres undefined), for which the TGI in assay [6] was above 22.7 µM; in assay [1], above 100 µM; in assay [2] it was above 51.4 µM; in assay [7], above 46.8 µM; in assay [8] it was above 100 µM; in assay [3] it was above 28.5 µM. The TGI is above 100 µM in assay [9], above 100 µM in assay [4], 44.2 µM in assay [10] and above 64.2 µM in assay [5].

On to `Fc1ccc2[nH]cc(-c3nc(-c4c[nH]c5ncccc45)cs3)c2c1`, for which the GI50 in [7] is 2.79 µM; in assay [8], above 100 µM; in assay [4], 4.46 µM; in [10], above 100 µM. Also, the TGI in [7], in assay [8], in [4] and in assay [10] was above 100 µM throughout.

Values taken from PubChem BioAssay (NCI).
